Results reported in patent publication US5166208A, “Fredericamycin A derivatives” (Boston College, priority 1991, dated 1992).
≈ marks a conversion by molar mass, not a printed value. Where two headings read alike, the source gives them in different places.

What was measured:
[1] = tested on: human lung (A549); experiment: In vitro microdilution inhibition, human lung A549; format: cell-based; settings: A549, 72 hours, 50% of cells killed
Description: (§1) As shown in Table III the compounds of the present invention exert an in vitro antitumor effect. The following cells lines were employed: human lung (A549); resistant human lung with low topo II activity (A549-VP); murine melanoma (B16); human colon tumor (HCT116); human colon tumor with elevated p170 levels (HCTVM); human colon tumor with low topo II activity (HCTVP); and another human colon carcinoma cell line (Moser). In the Table, the designation "NT" indicates the compound was not tested against the specified cell line. The cell lines were maintained in continuous culture at 37°, 5% CO2 and high humidity. Cells were harvested in log phase growth and suspended at concentration of 25,000 cells/mL. A […] aliquot was then added to each well (i.e., 3,750 cells per well) of a 96-well flat bottom plate and the cells were allowed to attach over a 24 hour period. After this 24 hour incubation, a 50 μL sample of the specified compound was added to the first (top) well of each column, and the remaining wells of each column serially diluted, 1:4, and allowed to incubate for 72 hours at 37° C., 5% CO2 and high humidity. Following incubation, 50 μL of freshly prepared stain solution was added to each well. After a 3 hour incubation at room temperature, absorbance was read at 450 nm on a microplate reader to determine the compound concentration at which 50% of the cells were killed, such concentration referred to as the "IC50 ".

[2] = tested on: resistant human lung with low topo II activity (A549-VP); experiment: In vitro microdilution inhibition, resistant human lung A549-VP; format: cell-based; settings: A549VP, 72 hours, 50% of cells killed
Description: as §1

[3] = tested on: murine melanoma (B16); experiment: In vitro microdilution inhibition, B16; format: cell-based; settings: Mus musculus; B16, 72 hours, 50% of cells killed
Description: as §1

[4] = tested on: human colon tumor (HCT116); experiment: In vitro microdilution inhibition, HCT116; format: cell-based; settings: HCT-116, 72 hours, 50% of cells killed
Description: as §1

[5] = tested on: human colon tumor with low topo II activity (HCTVP); experiment: In vitro microdilution inhibition, HCTVP; format: cell-based; settings: 72 hours, 50% of cells killed
Description: as §1

[6] = tested on: human colon carcinoma cell line (Moser); experiment: In vitro microdilution inhibition, Moser; format: cell-based; settings: 72 hours, 50% of cells killed
Description: as §1

[7] = tested on: p388 murine leukemia; experiment: In vivo activity against p388 murine leukemia in an acute mouse model; settings: for AWC (average weight change per mouse): before treatment to day five
Method: CDF1 mice of both sexes weighing between 16 and 25 gm. were used, with a 2 gm. weight range and same sex and source used per experiment. BDF1 mice also were used with the same weight, sex and source parameters. Control and test animals were injected interperitoneally with suspension of 1×10^6 p388 murine leukemia cells (0.5 mL dose) on day 0. Groups of 4-6 mice were used for each dosage amount they were treated with 5 doses on day one. A group of ten saline treated control mice was included in each set of experiments. A 30 day protocol was employed with mean survival time in days being determined for each group of mice with the number of survivors at the end of the 30 day period being noted. The mice were weighed before treatment and again on day five. The values listed for average weight change (AWC) is the average weight change per mouse at the specified dose. The change in weight was taken as a measure of drug toxicity. A loss in weight of up to 2 grams is not considered excessive. The results were determined in terms of % T/C which is the ratio of the mean survival time of the treated group to the mean survival time of the saline treated group times 100.

[8] = tested on: human colon tumor with elevated p170 levels (HCTVM); experiment: In vitro microdilution inhibition, HCTVM; format: cell-based; settings: 72 hours, 50% of cells killed
Description: as §1

[9] = tested on: p388 mouse leukemia; settings: in vitro; cited from earlier work
[10] = tested on: L1210 mouse leukemia; settings: in vitro; cited from earlier work

SMILES | IC50 [1] [µg/mL] | IC50 [2] [µg/mL] | IC50 [3] [µg/mL] | IC50 [4] [µg/mL] | IC50 [5] [µg/mL] | IC50 [6] [µg/mL] | AWC (average weight change per mouse) ([7]; CDF1 (female only), 5 mg/kg) | AWC (average weight change per mouse) ([7]; CDF1 (female only), 15 mg/kg) | % T/C (mean survival time treated/control) ([7]; CDF1 (female only), 45 mg/kg) | response vs control in vivo at 5 mg/kg ([7]; Mus musculus, P388, 720 h, CDF1 (female only), 5 mg/kg, read-out: % T/C (mean survival time treated/control)) [%] | response vs control in vivo at 15 mg/kg ([7]; Mus musculus, P388, 720 h, CDF1 (female only), 15 mg/kg, read-out: % T/C (mean survival time treated/control)) [%] | AWC (average weight change per mouse) ([7]; BDF1 (female only), 5 mg/kg) | AWC (average weight change per mouse) ([7]; BDF1 (female only), 15 mg/kg) | AWC (average weight change per mouse) ([7]; BDF1 (female only), 45 mg/kg) | response vs control in vivo at 5 mg/kg ([7]; Mus musculus, P388, 720 h, BDF1 (female only), 5 mg/kg, read-out: % T/C (mean survival time treated/control)) [%] | response vs control in vivo at 15 mg/kg ([7]; Mus musculus, P388, 720 h, BDF1 (female only), 15 mg/kg, read-out: % T/C (mean survival time treated/control)) [%] | response vs control in vivo at 45 mg/kg ([7]; Mus musculus, P388, 720 h, BDF1 (female only), 45 mg/kg, read-out: % T/C (mean survival time treated/control)) [%] | IC50 [8] [µg/mL] | cytotoxicity [9] | cytotoxicity [10]
CCCCCc1cc2cc3c(c(OCOC)c2c(OC)n1)C1(CC3)C(=O)c2c(O)c3c(c(O)c2C1=O)C(=O)C=CC3=O [Example 7, 6',7'-Dihydro-1-methoxy-9'-(methoxymethoxy)-3'-(n-pentyl)-spiro[2H-benz[f]indene-2,8'-[8H]cyclopent[g]isoquinoline]-1,3,5,8-tetrone] | 5 (≈ 8.75 µM) | 8.5 (≈ 14.9 µM) | 7 (≈ 12.2 µM) | 1.2 (≈ 2.1 µM) | 1.2 (≈ 2.1 µM) | 5.9 (≈ 10.3 µM) | -2.8 | -3.8 | Toxic | 150 | 150 |  |  |  |  |  |  |  |  | 
CCCCCc1cc2cc3c(c(O)c2c(=O)[nH]1)C1(CC3)C(=O)c2c(O)c3c(c(O)c2C1=O)C(=O)C=CC3=O [Example 8, 2',6',7'-Trihydro-4,9,9'-trihydroxy-3'-(n-pentyl)-spiro[2H-benz[f]-indene-2,8'-[8H]cyclopent[g]isoquinoline]-1,1',3,5,8-pentone] | 24.5 (≈ 47.7 µM) | 26.5 (≈ 51.6 µM) | 18 (≈ 35.1 µM) | 14.5 (≈ 28.2 µM) |  | 18.3 (≈ 35.6 µM) |  |  |  |  |  | 1.0 | -1.5 | -2.8 | 125 | 135 | 145 |  |  | 
CNC1=CC(=O)c2c(O)c3c(c(O)c2C1=O)C(=O)C1(CCc2cccc(OCOC)c21)C3=O (centres unmarked) [Example 12, 2',3'-Dihydro-6-methylamino-7'-(methoxymethoxy)-1H-indene-1'-spiro-2-[4,9-dihydroxy-2H-benz[f]-indene-1,3,5,8-tetrone]] | < 0.03 | 0.05 (≈ 0.111 µM) | 0.03 (≈ 0.0668 µM) | 0.03 (≈ 0.0668 µM) | 0.03 (≈ 0.0668 µM) | 0.03 (≈ 0.0668 µM) |  |  |  |  |  |  |  |  |  |  |  | 0.05 (≈ 0.111 µM) |  | 
COCOc1cccc2c1C1(CC2)C(=O)c2c(O)c3c(c(O)c2C1=O)C(=O)C(Nc1cccc(C(=O)O)c1)=CC3=O (centres unmarked) [Example 20, 2',3'-Dihydro-7'-(methoxymethoxy)-1H-indene-1,-spiro-2-[6-(3-carboxyanilino)-4,9-dihydroxy-2H-benz[f]indene-1,2,5,8-tetrone]] | > 16 | > 16 | > 16 | > 16 | > 16 | > 16 |  |  |  |  |  |  |  |  |  |  |  | > 16 |  | 
C/C=C/C=C/c1cc2cc3c(c(O)c2c(=O)[nH]1)C1(CC3)C(=O)c2c(O)c3c(c(O)c2C1=O)C(=O)C(OC)=CC3=O (centres unmarked) [fredericamycin A] |  |  |  |  |  |  |  |  |  |  |  |  |  |  |  |  |  |  | comparable to doxorubicin and actinomycin | comparable to doxorubicin and actinomycin
